Data from article PMC4698058 (Fitoterapia, 2015).

Molecular target: T1, recombinant human M1 receptor (Homo sapiens, UniProt P11229)
T1 sequence (P11229 1-460): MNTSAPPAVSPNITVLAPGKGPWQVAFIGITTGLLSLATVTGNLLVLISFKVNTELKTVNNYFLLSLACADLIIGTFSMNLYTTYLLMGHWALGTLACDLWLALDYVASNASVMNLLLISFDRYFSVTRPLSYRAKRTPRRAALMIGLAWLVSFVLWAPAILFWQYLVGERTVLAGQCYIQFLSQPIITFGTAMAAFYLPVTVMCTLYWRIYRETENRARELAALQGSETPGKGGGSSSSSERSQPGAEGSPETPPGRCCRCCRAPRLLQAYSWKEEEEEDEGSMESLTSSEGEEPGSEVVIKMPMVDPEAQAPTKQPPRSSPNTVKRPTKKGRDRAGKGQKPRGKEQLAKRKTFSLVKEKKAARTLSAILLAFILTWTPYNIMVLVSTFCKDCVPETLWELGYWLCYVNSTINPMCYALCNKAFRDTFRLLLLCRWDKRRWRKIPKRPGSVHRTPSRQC
Assay: Inhibition of carbacol-induced Ca2+ mobilization in CHO-M1 cells
Type: cell-based
Details: for inhibition of carbacol induced M1 receptor activities: compound at 10 μM

Molecule	inhibition of carbacol induced M1 receptor activities (CHO-M1 cells)	also measured
NCCCCNC(=O)/C=C/c1ccc(O)c(O)c1 [compound 6, cafeoylputrescine]	35-40%	–
scotanamine A [compound 1]	35-40%	–
O=C(O)/C=C/c1ccc(O)c(O)c1 [caffeic acid, reference compound]	–	activity against M1 receptor (concentrations up to 10 μM, CHO-M1 cells): did not show any activity
scotanamine C [compound 3]	–	IC50 (read-out: IC50, inhibitory activity against M1 receptor): 7.8 µM
